The experiment concerns normal mice (BALB/c). The experiment is described as follows: Glucose challenge after oral administration of polypeptide, normal mice; blood sugar value by blood sugar meter. The format is in vivo. The following applies: 50 mg/kg-body weight oral; for Inhibition Rate (%) toward the blood sugar values: BALB/c fasted 18 hrs, 4 g/kg glucose i.p. after 15 minutes, blood sugar after 180 minutes, relative to water control; for effect of reducing the blood sugar values (in words): BALB/c, comment on Tables 4 and 5. An excerpt: The following materials were adopted in the examples: • (A) Experimental subjects: two strains of mice, BALB/c (the metabolism of blood sugar is normal) and ob/ob (spontaneous diabetes type 2), were used to conduct experiments, and they were provided by the National Laboratory Animal Center, Taiwan. • (B) Polypeptides: polypeptides with amino acid sequences shown in Table 1 were produced by the solid phase synthesis method.
Five normal mice (BALB/c) in each of the nine groups fasted for 18 hrs, and then, respectively, a solution (20 μL) of 50 mg/kg-body weight of the polypeptide of SEQ ID NO: 1, a solution (20 μL) of 50 mg/kg-body weight of the polypeptide of SEQ ID NO: 2, a solution (20 μL) of 50 mg/kg-body weight of the polypeptide of SEQ ID NO: 3, a solution (20 μL) of 50 mg/kg-body weight of the polypeptide of SEQ ID NO: 4, a solution (20 μL) of 50 mg/kg-body weight of the polypeptide of SEQ ID NO: 5, a solution (20 μL) of 50 mg/kg-body weight of the polypeptide of SEQ ID NO: 6, a solution (20 μL) of 50 mg/kg-body weight of the polypeptide of SEQ ID NO: 7, a solution (20 μL) of 50 mg/kg-body weight of the polypeptide of SEQ ID NO: 8, or a solution (20 μL) of 50 mg/kg-body weight of the polypeptide of SEQ ID NO:9, was given to each mouse of each group of the experimental group by oral administration, while in the control group (five mice), each mouse was given water (20 μL). After 15 minutes, a solution of 4 g/kg-body weight of glucose was injected into the peritoneal cavity of each mouse to rapidly raise the blood sugar value of each mouse. After 180 minutes, the blood of each mouse was extracted from its tails, and the blood sugar value was determined by a blood sugar meter (Accu-Check Advantage, Roche, Germany). The blood sugar values of the mice of the experimental group were compared with those of the control group and were analyzed to obtain the relative inhibition rate of each of the polypeptides toward the blood sugar values, as shown in Table 4.
Five normal mice (BALB/c) in each of two groups fasted for 18 hrs, and then, respectively, a solution (20 μL) of 50 mg/kg-body weight of the polypeptide of SEQ ID NO: 10, or a solution (20 μL) of 50 mg/kg-body weight of the polypeptide of SEQ ID NO:11, was given to each mouse of each group of the experimental group by oral administration, while in the control group (five mice), each mouse was given water (20 μL). After 15 minutes, a solution of 4 g/kg-body weight of glucose was injected into the peritoneal cavity of each mouse to rapidly raise the blood sugar value of each mouse. After 180 minutes, the blood of each mouse was extracted from its tails, and the blood sugar value was determined by a blood sugar meter (Accu-Check Advantage, Roche, Germany). The blood sugar values of the mice of the experimental group were compared with those of the control group and were analyzed to obtain a relative inhibition rate of the polypeptides of SEQ ID NO:10 and SEQ ID NO:11 toward the blood sugar values, as shown in Table 5.

Regarding “DENRVRIWVDTVAKTPTIG (ORYZA SATIVA) [SEQ ID NO: 9]”, the “Inhibition Rate (%) toward the blood sugar values” is 60.2 ± 14.1% and the “effect of reducing the blood sugar values (in words)” value is given as “better effect of reducing the blood sugar values”.
As for “RVRIWVNKRGLVVSPPRIG (CUCURBITA MAXIMA) [SEQ ID NO: 1]”, the “Inhibition Rate (%) toward the blood sugar values” is on record as 15.7 ± 6.9%.
As to “RVRVWVDEIRIVVRNPTAG (ARABIDOPSIS THALIANA) [SEQ ID NO: 8]”, the “Inhibition Rate (%) toward the blood sugar values” amounted to 25.5 ± 8.6%.
Same read-out and setting: for “RVRVWVDENGIVISVPTIG (VITIS VINIFERA) [SEQ ID NO: 5]” the value was 30.2 ± 31.3%.
As for “RVRVWVDENGIVTRVPVIG (SAMBUCUS NIGRA) [SEQ ID NO: 7]”, the “Inhibition Rate (%) toward the blood sugar values” came to 56.3 ± 2.6% and the “effect of reducing the blood sugar values (in words)” value is “better effect of reducing the blood sugar values”.
As for “RVRVWVDSYGIVSMVPKIG (VITIS VINIFERA) [SEQ ID NO: 4]”, the “Inhibition Rate (%) toward the blood sugar values” was 67.8 ± 9.1% and the “effect of reducing the blood sugar values (in words)” value was “better effect of reducing the blood sugar values”.
Turning to “RVRVWVNKKGKVIRVPRIG (CITRUS PARADISI) [SEQ ID NO: 6]”, the “Inhibition Rate (%) toward the blood sugar values” was found to be 26.2 ± 3.1%.
As to “RVRVWVTERGIVAR (MOMORDICA …) [SEQ ID NO: 10]”, the “Inhibition Rate (%) toward the blood sugar values” is listed as 34.5 ± 8.8 % and the “effect of reducing the blood sugar values (in words)” value was “can reduce the blood sugar values of the normal mice efficiently”.
For “RVRVWVTERGIVARPPTIG (MOMORDICA …) [SEQ ID NO: 11]”, the “effect of reducing the blood sugar values (in words)” value is listed as “can reduce the blood sugar values of the normal mice efficiently”. The “Inhibition Rate (%) toward the blood sugar values” (50 mg/kg) was 51.9 ± 19.4 %. For the same sequence, under “listed as SEQ ID NO:11, 50 mg/kg”, the “Inhibition Rate (%) toward the blood sugar values” was “about 50%”.
As to “RVWVWINKDEIVYQVPTIG (MEDICAGO TRUNCATULA) [SEQ ID NO: 3]”, the “Inhibition Rate (%) toward the blood sugar values” is listed as 52.5 ± 14.9%.
On the same count and under the same terms, for “RVWVWVNSKGIVIRTPIIT (ZINNIA ELEGANS) [SEQ ID NO: 2]” the value was 24.5 ± 2.3%.

These data come from patent publication US8476229B2, “Blood sugar-modulating polypeptides” (China Medical University, priority 2008, dated 2013).
